Results taken from the supplement of paper PMC6045584.
± gives the standard deviation of the averaged measurements.

How the values were obtained:
VINORELBINE = compound: CCC1=C[C@@H]2CN(C1)Cc1c([nH]c3ccccc13)[C@@](C(=O)OC)(c1cc3c(cc1OC)N(C)[C@H]1[C@@](O)(C(=O)OC)[C@H](OC(C)=O)[C@]4(CC)C=CCN5CC[C@]31[C@@H]54)C2 [VINORELBINE]; experiment: surviving fraction relative to DMSO-only wells; higher = less growth inhibition; conditions: exposure time: 5 days
In short: (§1)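 A line counted only if its three screens reached replicate Pearson r >0.7 and median Z' >0.3. Tumour cells in log phase were seeded at 250–500 per well in 384-well plates and, after 24 hours, kept in continuous contact with inhibitors at 0.5, 1, 5, 10, 50, 100, 500 and 1000 nM for five days. Surviving fraction was taken from CellTiter-Glo luminescence relative to the median of DMSO-only wells.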

SUNITINIB = compound: CCN(CC)CCNC(=O)c1c(C)[nH]c(/C=C2\C(=O)Nc3ccc(F)cc32)c1C [SUNITINIB]; experiment: as above; conditions: exposure time: 5 days
In short: as §1

Test System | surviving fraction (VINORELBINE; 0.5 nM) | surviving fraction (VINORELBINE; 1 nM) | surviving fraction (VINORELBINE; 5 nM) | surviving fraction (VINORELBINE; 10 nM) | surviving fraction (VINORELBINE; 50 nM) | surviving fraction (VINORELBINE; 100 nM) | surviving fraction (VINORELBINE; 500 nM) | surviving fraction (VINORELBINE; 1000 nM) | surviving fraction (SUNITINIB; 0.5 nM) | surviving fraction (SUNITINIB; 1 nM) | surviving fraction (SUNITINIB; 50 nM) | surviving fraction (SUNITINIB; 100 nM) | surviving fraction (SUNITINIB; 500 nM) | surviving fraction (SUNITINIB; 1000 nM) | surviving fraction (SUNITINIB; 5 nM) | surviving fraction (SUNITINIB; 10 nM)
22RV1 PROSTATE | 1.04 ± 0.039 | 1.01 ± 0.057 | 0.916 ± 0.13 | 0.655 ± 0.12 | 0.12 ± 0.028 | 0.0623 ± 0.0038 | 0.0587 ± 0.012 | 0.06367 ± 0.00058 | 0.975 ± 0.028 | 0.952 ± 0.021 | 0.937 ± 0.1 | 0.932 ± 0.027 | 0.739 ± 0.049 | 0.41 ± 0.029 | – | –
93VU HEADNECK | 1.02 ± 0.11 | 1.02 ± 0.19 | 1.04 ± 0.034 | 1.05 ± 0.075 | 0.554 ± 0.011 | 0.292 ± 0.03 | 0.141 ± 0.015 | 0.145 ± 0.022 | 0.817 ± 0.07 | 0.819 ± 0.059 | 1.11 ± 0.055 | 0.93 ± 0.057 | 0.261 ± 0.026 | 0.158 ± 0.025 | 0.85 ± 0.03 | 0.823 ± 0.078
143B BONE | 1 ± 0.02 | 1.016 ± 0.0057 | 1.016 ± 0.0071 | 0.864 ± 0.024 | 0.229 ± 0.0071 | 0.1625 ± 0.00071 | 0.039 ± 0.0028 | 0.0345 ± 0.00071 | 0.982 ± 0.044 | 1.01 ± 0.026 | 1.01 ± 0.019 | 1.008 ± 0.0042 | 0.824 ± 0.067 | 0.461 ± 0.055 | 1.01 ± 0.022 | 1.02 ± 0.035
A549 LUNG | 0.982 ± 0.049 | 0.989 ± 0.049 | 0.979 ± 0.053 | 0.968 ± 0.045 | 0.461 ± 0.034 | 0.308 ± 0.023 | 0.228 ± 0.0085 | 0.274 ± 0.015 | 0.922 ± 0.021 | 0.907 ± 0.029 | 0.991 ± 0.026 | – | 1.04 ± 0.014 | 1.03 ± 0.02 | 0.903 ± 0.013 | 0.89 ± 0.031
ASKA SYNOVIAL | 0.912 ± 0.086 | 0.846 ± 0.075 | 0.43 ± 0.029 | 0.306 ± 0.015 | 0.247 ± 0.026 | 0.229 ± 0.02 | 0.257 ± 0.03 | 0.334 ± 0.022 | 0.864 ± 0.079 | 0.768 ± 0.059 | 0.867 ± 0.043 | 0.659 ± 0.04 | 0.441 ± 0.034 | 0.104 ± 0.0093 | 0.858 ± 0.028 | 0.328 ± 0.056
BT20 BREAST | 1.16 ± 0.21 | 0.875 ± 0.22 | 0.973 ± 0.076 | 0.709 ± 0.18 | 0.0683 ± 0.025 | 0.055 ± 0.019 | 0.106 ± 0.029 | 0.09 ± 0.03 | 0.794 ± 0.14 | 0.732 ± 0.05 | 1 ± 0.16 | 1.23 ± 0.23 | 1.31 ± 0.2 | 1.21 ± 0.16 | 0.757 ± 0.081 | 0.783 ± 0.14
BT549 BREAST | 1.13 ± 0.039 | 1.21 ± 0.15 | 0.934 ± 0.12 | 0.618 ± 0.099 | 0.146 ± 0.037 | 0.132 ± 0.023 | 0.154 ± 0.043 | 0.158 ± 0.018 | 0.8 ± 0.11 | 0.861 ± 0.048 | 1.11 ± 0.13 | 1.12 ± 0.16 | 1.19 ± 0.11 | 0.785 ± 0.069 | 0.854 ± 0.065 | 0.794 ± 0.13
CADOES1 SOFT TISSUE | 0.972 ± 0.19 | 0.882 ± 0.043 | 0.928 ± 0.12 | 0.84 ± 0.073 | 0.877 ± 0.12 | 0.825 ± 0.038 | 0.201 ± 0.013 | 0.0913 ± 0.0064 | – | 0.976 ± 0.12 | 0.885 ± 0.086 | 1.03 ± 0.032 | – | 0.609 ± 0.11 | 0.892 ± 0.044 | 0.967 ± 0.083
CAL51 BREAST | 0.926 ± 0.047 | 0.945 ± 0.016 | 0.736 ± 0.035 | 0.452 ± 0.011 | 0.0567 ± 0.0027 | 0.045 ± 0.0027 | 0.0317 ± 0.0015 | 0.0318 ± 0.0033 | 0.886 ± 0.047 | 0.895 ± 0.012 | – | 1.01 ± 0.035 | 0.52 ± 0.031 | 0.202 ± 0.031 | 0.94 ± 0.011 | 0.934 ± 0.053
CAL120 BREAST | 0.969 ± 0.032 | 0.9515 ± 0.0038 | 0.782 ± 0.015 | 0.623 ± 0.026 | 0.169 ± 0.017 | 0.157 ± 0.0098 | 0.154 ± 0.02 | 0.14 ± 0.0076 | 0.881 ± 0.021 | 0.882 ± 0.036 | 0.891 ± 0.023 | 0.891 ± 0.038 | 0.64 ± 0.039 | 0.386 ± 0.037 | 0.876 ± 0.047 | –
CASKI CERVIX | 0.919 ± 0.041 | 0.911 ± 0.046 | 0.702 ± 0.014 | 0.188 ± 0.027 | 0.0597 ± 0.0076 | 0.087 ± 0.005 | 0.106 ± 0.012 | 0.1 ± 0.0083 | 0.757 ± 0.041 | 0.731 ± 0.072 | 0.891 ± 0.088 | 0.717 ± 0.039 | 0.166 ± 0.0025 | 0.0627 ± 0.004 | 0.792 ± 0.052 | 0.763 ± 0.064
CHLA90 AUTONOMIC GANGLIA | 1.009 ± 0.01 | 1.05 ± 0.036 | 0.951 ± 0.058 | 0.768 ± 0.011 | 0.177 ± 0.023 | 0.105 ± 0.012 | 0.0883 ± 0.012 | 0.0917 ± 0.0061 | 0.885 ± 0.043 | 0.803 ± 0.062 | – | 0.776 ± 0.047 | 0.779 ± 0.015 | 0.201 ± 0.02 | 0.805 ± 0.025 | 0.248 ± 0.019
CME SYNOVIAL | 1.11 ± 0.17 | 1.09 ± 0.11 | 1.21 ± 0.11 | 1.08 ± 0.12 | 0.488 ± 0.098 | 0.355 ± 0.085 | 0.275 ± 0.039 | 0.333 ± 0.033 | 0.928 ± 0.17 | 0.551 ± 0.019 | – | 0.82 ± 0.032 | 0.767 ± 0.1 | 0.0447 ± 0.0074 | – | 0.036 ± 0.0027
COLO320DM LARGE INTESTINE | 1 ± 0.036 | 1.08 ± 0.059 | 1.06 ± 0.12 | 1.12 ± 0.088 | 1.09 ± 0.047 | 0.9883 ± 0.006 | 0.534 ± 0.022 | 0.293 ± 0.012 | – | 0.921 ± 0.045 | 0.929 ± 0.057 | 0.871 ± 0.075 | 0.324 ± 0.026 | 0.115 ± 0.011 | 0.957 ± 0.063 | 0.369 ± 0.055
DU4475 BREAST | 0.973 ± 0.088 | 1.01 ± 0.025 | 1.01 ± 0.14 | 0.906 ± 0.095 | 0.403 ± 0.091 | 0.211 ± 0.027 | 0.0703 ± 0.016 | 0.051 ± 0.015 | 0.742 ± 0.17 | 0.797 ± 0.12 | 0.668 ± 0.12 | 0.649 ± 0.21 | 0.428 ± 0.18 | 0.1 ± 0.029 | 0.716 ± 0.14 | 0.771 ± 0.18
H23 LUNG | 1.03 ± 0.046 | 0.9937 ± 0.0096 | 1.04 ± 0.039 | 0.84 ± 0.014 | 0.205 ± 0.015 | 0.173 ± 0.011 | 0.22 ± 0.002 | 0.1743 ± 0.0015 | 0.953 ± 0.023 | 0.918 ± 0.013 | – | 0.829 ± 0.014 | 0.598 ± 0.06 | 0.368 ± 0.021 | – | 0.885 ± 0.045
HCC38 BREAST | 1.19 ± 0.19 | 1.12 ± 0.3 | 1.24 ± 0.14 | 1.06 ± 0.12 | 0.223 ± 0.039 | 0.216 ± 0.029 | 0.334 ± 0.06 | 0.251 ± 0.0055 | 0.845 ± 0.24 | 0.893 ± 0.22 | 1.16 ± 0.1 | 1.18 ± 0.11 | 1.04 ± 0.22 | 0.76 ± 0.21 | 0.966 ± 0.15 | –
HCC70 BREAST | 1.04 ± 0.032 | 1.01 ± 0.014 | 0.937 ± 0.042 | 0.752 ± 0.029 | 0.108 ± 0.012 | 0.129 ± 0.013 | 0.131 ± 0.015 | 0.132 ± 0.02 | 1.01 ± 0.029 | – | – | – | 1.15 ± 0.11 | – | 1 ± 0.096 | 0.904 ± 0.045
HCC78 LUNG | 0.958 ± 0.18 | 0.806 ± 0.26 | 0.877 ± 0.25 | 0.575 ± 0.15 | 0.0987 ± 0.045 | 0.094 ± 0.016 | 0.0637 ± 0.012 | 0.042 ± 0.011 | 0.831 ± 0.076 | 0.925 ± 0.054 | 1.24 ± 0.33 | 1.34 ± 0.44 | 1.67 ± 0.23 | 0.633 ± 0.1 | 0.95 ± 0.099 | 0.46 ± 0.089
HCC202 BREAST | 1.25 ± 0.24 | 1.21 ± 0.12 | 0.946 ± 0.088 | 0.603 ± 0.14 | 0.383 ± 0.12 | 0.313 ± 0.06 | 0.234 ± 0.056 | 0.205 ± 0.033 | 0.879 ± 0.093 | 0.806 ± 0.23 | 1.26 ± 0.17 | – | 0.714 ± 0.15 | 0.639 ± 0.06 | 1.29 ± 0.32 | 0.801 ± 0.19
HCC1806 BREAST | 0.976 ± 0.16 | 1.02 ± 0.075 | 1.01 ± 0.077 | 0.173 ± 0.14 | 0.0363 ± 0.0095 | 0.0347 ± 0.0038 | 0.042 ± 0.001 | 0.041 ± 0.0053 | 0.677 ± 0.078 | 0.59 ± 0.41 | 1 ± 0.091 | 0.978 ± 0.11 | 0.677 ± 0.039 | 0.397 ± 0.044 | 0.667 ± 0.45 | 0.566 ± 0.43
